Here are results for 19 molecules from BindingDB's records for doi:10.1021/cc9001026 (Bristol-Myers Squibb, 2010).

Each structure is given as a SMILES string. Where “and” joins values, the source holds several entries; their conditions need not be identical. Identical values can stand only once.

In the assay the target is Gag-Pol polyprotein (Human immunodeficiency virus type 1 group M subtype B (isolate HXB2), UniProt P04585). In words: Inhibition Assay. From the text:
Inhibition assay using HIV-1 integrase.
A word on the IC50: it is the midpoint of a concentration-inhibition curve. Lower therefore signals greater potency. Take `COc1ccc(CN)cc1`: the midpoint of inhibition, the IC50, lay at 3.92 µM.

In the case of `O=C(NCc1ccc(Cl)c(Cl)c1)C1C(=O)C(=O)N(CC2CC2)C1c1cccc2c1OCO2` (centres undefined) [Integrase inhibitor, 2{1,1,1}], the IC50 is 0.05 µM and 0.039 µM.

Turning to `CC(=O)NC(CCCCN1C(=O)C(=O)C(C(=O)NCc2ccc(Cl)c(Cl)c2)C1c1cccc2c1OCO2)C(=O)O` (centres undefined) [Integrase inhibitor, 2{1,1,2}], the IC50 is 0.067 µM and 0.029 µM.

As for `CCOc1ccccc1C1C(C(=O)NCc2ccc(Cl)c(Cl)c2)C(=O)C(=O)N1CCCCC(NC(C)=O)C(=O)O` (centres undefined) [Integrase inhibitor, 2{1,2,2}], the IC50 was 0.057 µM and 0.026 µM.

For `CCOCCCN1C(=O)C(=O)C(C(=O)NCc2ccc(Cl)c(Cl)c2)C1c1ccccc1Oc1ccccc1` (centres undefined) [Integrase inhibitor, 2{1,4,4}], the IC50 was 0.09 µM and 0.08 µM.

As for `COc1ccc(CNC(=O)C2C(=O)C(=O)N(CC3CC3)C2c2ccccc2C(F)(F)F)cc1` (centres undefined) [Integrase inhibitor, 2{3,5,1}], the IC50 is 12 µM and 10.3 µM.

The molecule `NCc1ccc(Cl)c(Cl)c1` [Integrase inhibitor, R1{1}] came in with a concentration for half-maximal inhibition (IC50) of 1.34 µM.

Turning to `NCc1ccc(F)cc1` [Integrase inhibitor, R1{2}], the IC50 was 4.05 µM.

Molecule `NCc1cc(Cl)cc(Cl)c1` [Integrase inhibitor, R1{4}] registered a half-inhibitory concentration (IC50) of 2.47 µM.

For `O=Cc1cccc2c1OCO2` [Integrase inhibitor, R2{1}], the midpoint of inhibition, the IC50, lay at 3.05 µM.

On to `CCOc1ccccc1C=O` [Integrase inhibitor, R2{2}], for which the IC50 was 1.02 µM.

Regarding `O=Cc1ccccc1OCC(=O)O` [Integrase inhibitor, R2{3}], the IC50 was 2.03 µM. Against the preceding molecule, the IC50 is about 2-fold higher.

Molecule `O=Cc1ccccc1OCc1ccccc1` [Integrase inhibitor, R2{4}] registered a concentration for half-maximal inhibition (IC50) of 1.75 µM.

For `O=Cc1ccccc1C(F)(F)F` [Integrase inhibitor, R2{5}], the IC50 is 7.86 µM.

`NCC1CC1` [Integrase inhibitor, R3{1}]: half-maximal inhibition (IC50) was put at 3.64 µM.

`CC(=O)N[C@H](CCCCN)C(=O)O` [Integrase inhibitor, R3{2}]: the IC50 was 1.84 µM.

In turn, `CN` [Integrase inhibitor, R3{3}] showed an IC50 of 2.7 µM.

On to `CCOCCCN` [Integrase inhibitor, R3{4}], for which the concentration for half-maximal inhibition (IC50) worked out at 2.11 µM.

Molecule `CCOCCN` [Integrase inhibitor, R3{5}] registered an IC50 of 4.13 µM.
